ChEMBL document CHEMBL3407488, “Synthesis and L-type calcium channel blocking activity of new chiral oxadiazolothiazinones” (Eur J Med Chem, 2015)

Columns and labels:
Left cardiac atrium [1] = assay: Negative ionotropic activity in guinea pig left atrium assessed as decrease in developed tension driven at 1 Hz at 10^-6 M relative to control; assay type: functional, Cavia porcellus; set-up: scale not given: the % may be the effect or the level left
Cav1.2b [2] = assay: Antagonist activity at Cav1.2b in K+-depolarized guinea pig ileum longitudinal smooth muscle assessed as inhibition of calcium-induced contraction at 10^-4 M relative to control; assay type: tissue-based, Cavia porcellus; details: read-out: Activity
[3] = Antagonist activity at Cav1.2b in K+-depolarized guinea pig ileum longitudinal smooth muscle assessed as inhibition of calcium-induced contraction; assay type: tissue-based; details: Cavia porcellus
Left cardiac atrium [4] = assay: Negative ionotropic activity in guinea pig left atrium assessed as decrease in developed tension driven at 1 Hz; assay type: functional, tissue-based; details: Cavia porcellus
Cavia porcellus [5] = species on record: Cavia porcellus; assay: Antagonist activity at Cav1.2a in K+-depolarized guinea pig aortic strips assessed as inhibition of calcium-induced contraction at 10^-4 M relative to control; assay type: tissue-based; set-up: scale not given: the % may be the effect or the level left; details: Aorta
Right cardiac atrium [6] = assay: Negative chronotropic activity in guinea pig […] atrium assessed as decrease in atrial rate on spontaneous beating at 10^-5 M relative to control; assay type: functional, Cavia porcellus; set-up: scale not given: the % may be the effect or the level left
Right cardiac atrium [7] = assay: Negative chronotropic activity in guinea pig […] atrium assessed as decrease in atrial rate on spontaneous beating at 10^-4 M relative to control; assay type: functional, Cavia porcellus; set-up: scale not given: the % may be the effect or the level left
Right cardiac atrium [8] = assay: Negative chronotropic activity in guinea pig […] atrium assessed as decrease in atrial rate on spontaneous beating at 5 x 10^-6 M relative to control; assay type: functional, Cavia porcellus; set-up: scale not given: the % may be the effect or the level left
Cav1.2b [9] = assay: Antagonist activity at Cav1.2b in K+-depolarized guinea pig ileum longitudinal smooth muscle assessed as inhibition of calcium-induced contraction at 5 x 10^-5 M relative to control; assay type: tissue-based, Cavia porcellus; details: read-out: Activity
Left cardiac atrium [10] = assay: Negative ionotropic activity in guinea pig left atrium assessed as decrease in developed tension driven at 1 Hz at 5 x 10^-6 M relative to control; assay type: functional, Cavia porcellus; set-up: scale not given: the % may be the effect or the level left
Cavia porcellus [11] = species on record: Cavia porcellus; assay: Antagonist activity at Cav1.2a in K+-depolarized guinea pig aortic strips assessed as inhibition of calcium-induced contraction at 5 x 10^-5 M relative to control; assay type: tissue-based; set-up: scale not given: the % may be the effect or the level left; details: Aorta
Right cardiac atrium [12] = assay: Negative chronotropic activity in guinea pig […] atrium assessed as decrease in atrial rate on spontaneous beating at 5 x 10^-5 M relative to control; assay type: functional, Cavia porcellus; set-up: scale not given: the % may be the effect or the level left
Right cardiac atrium [13] = assay: Negative chronotropic activity in guinea pig […] atrium assessed as decrease in atrial rate on spontaneous beating at 5 x 10^-7 M relative to control; assay type: functional, Cavia porcellus; set-up: scale not given: the % may be the effect or the level left
Left cardiac atrium [14] = assay: Negative ionotropic activity in guinea pig left atrium assessed as decrease in developed tension driven at 1 Hz at 5 x 10^-7 M relative to control; assay type: functional, Cavia porcellus; set-up: scale not given: the % may be the effect or the level left
Cav1.2b [15] = assay: Antagonist activity at Cav1.2b in K+-depolarized guinea pig ileum longitudinal smooth muscle assessed as inhibition of calcium-induced contraction at 5 x 10^-6 M relative to control; assay type: tissue-based, Cavia porcellus; details: read-out: Activity
[16] = Selectivity ratio of IC50 for Cav1.2a in K+-depolarized guinea pig aortic strips to IC50 for Cav1.2b in K+-depolarized guinea pig ileum longitudinal smooth muscle; set-up: species or system Cavia porcellus, Muscle tissue
[17] = Antagonist activity at Cav1.2a in K+-depolarized guinea pig aortic strips assessed as inhibition of calcium-induced contraction; assay type: tissue-based; details: Cavia porcellus, Aorta
Right cardiac atrium [18] = assay: Negative chronotropic activity in guinea pig […] atrium assessed as decrease in atrial rate on spontaneous beating; assay type: functional; details: Cavia porcellus
Right cardiac atrium [19] = assay: Negative chronotropic activity in guinea pig […] atrium assessed as decrease in atrial rate on spontaneous beating at 10^-6 M relative to control; assay type: functional, Cavia porcellus; set-up: scale not given: the % may be the effect or the level left
Cav1.2b [20] = assay: Antagonist activity at Cav1.2b in K+-depolarized guinea pig ileum longitudinal smooth muscle assessed as inhibition of calcium-induced contraction at 10^-6 M relative to control; assay type: tissue-based, Cavia porcellus; details: read-out: Activity
Left cardiac atrium [21] = assay: Negative ionotropic activity in guinea pig left atrium assessed as decrease in developed tension driven at 1 Hz at 10^-5 M relative to control; assay type: functional, Cavia porcellus; set-up: scale not given: the % may be the effect or the level left
Left cardiac atrium [22] = assay: Ratio of diltiazem EC50 to compound EC50 for negative ionotropic activity in guinea pig left atrium assessed as decrease in developed tension driven at 1 Hz; assay type: functional, Cavia porcellus
Cavia porcellus [23] = species on record: Cavia porcellus; assay: Antagonist activity at Cav1.2a in K+-depolarized guinea pig aortic strips assessed as inhibition of calcium-induced contraction at 5 x 10^-8 M relative to control; assay type: tissue-based; set-up: scale not given: the % may be the effect or the level left; details: Aorta
Right cardiac atrium [24] = assay: Negative chronotropic activity in guinea pig […] atrium assessed as decrease in atrial rate on spontaneous beating at 5 x 10^-8 M relative to control; assay type: functional, Cavia porcellus; set-up: scale not given: the % may be the effect or the level left
[25] = Selectivity ratio of IC50 for Cav1.2b in K+-depolarized guinea pig ileum longitudinal smooth muscle to EC50 for negative ionotropic activity in guinea pig left atrium; set-up: species or system Cavia porcellus, Muscle tissue
[26] = Selectivity ratio of IC50 for Cav1.2b in K+-depolarized guinea pig ileum longitudinal smooth muscle to IC50 for Cav1.2a in K+-depolarized guinea pig aortic strips; set-up: species or system Cavia porcellus, Muscle tissue

## O=c1onc2n1-c1ccccc1S[C@]2(OCC(F)(F)F)c1ccc(Br)cc1
Left cardiac atrium [1]
  Activity: 77%
Cav1.2b [2]
  inhibition at 100 µM: 54%
[3]
  IC50: 4580 nM
Left cardiac atrium [4]
  EC50: 9.8 nM
Cavia porcellus [5]
  Activity: 1%
Right cardiac atrium [6]
  Activity: 24%

## CC1=CS[C@@](OCC(F)(F)F)(c2ccc(Br)cc2)c2noc(=O)n21
Left cardiac atrium [1]
  Activity: 82%
Cav1.2b [2]
  inhibition at 100 µM: 85%
[3]
  IC50: 19000 nM
Left cardiac atrium [4]
  EC50: 34 nM
Right cardiac atrium [7]
  Activity: 16%
Cavia porcellus [5]
  Activity: 12%

## CCO[C@@]1(c2ccc(Br)cc2)Sc2ccccc2-n2c1noc2=O
Right cardiac atrium [8]
  Activity: 10%
[3]
  IC50: 5190 nM
Cav1.2b [9]
  inhibition at 50 µM: 60%
Left cardiac atrium [10]
  Activity: 25%
Cavia porcellus [11]
  Activity: 2%

## CCO[C@]1(c2ccc(Br)cc2)SC=C(C)n2c1noc2=O
Left cardiac atrium [1]
  Activity: 77%
Left cardiac atrium [4]
  EC50: 70 nM
Cavia porcellus [5]
  Activity: 11%
Right cardiac atrium [6]
  Activity: 16%

## CCO[C@@]1(c2ccc(Br)cc2)SC=C(C)n2c1noc2=O
Left cardiac atrium [1]
  Activity: 58%
Right cardiac atrium [12]
  Activity: 15%
Cavia porcellus [5]
  Activity: 7%

## CC1=CS[C@](OCC(F)(F)F)(c2ccc(Br)cc2)c2noc(=O)n21
Cav1.2b [2]
  inhibition at 100 µM: 98%
Right cardiac atrium [12]
  Activity: 40%
[3]
  IC50: 12200 nM
Left cardiac atrium [4]
  EC50: 26 nM
Cavia porcellus [5]
  Activity: 9%
Left cardiac atrium [10]
  Activity: 82%

## CCO[C@]1(c2ccc(Br)cc2)Sc2ccccc2-n2c1noc2=O
Right cardiac atrium [13]
  Activity: 20%
Left cardiac atrium [14]
  Activity: 64%
[3]
  IC50: 20 nM
Left cardiac atrium [4]
  EC50: 9.3 nM
Cav1.2b [15]
  inhibition at 5 µM: 78%
Cavia porcellus [11]
  Activity: 8%

## COc1ccc([C@@H]2Sc3ccccc3N(CCN(C)C)C(=O)[C@@H]2OC(C)=O)cc1 [DILTIAZEM]
[16]
  Ratio IC50: 24
[17]
  IC50: 2600 nM
[3]
  IC50: 110 nM
Right cardiac atrium [18]
  EC30: 70 nM
Left cardiac atrium [4]
  EC50: 790 nM
Cavia porcellus [5]
  Activity: 88%
Right cardiac atrium [19]
  Activity: 94%
Cav1.2b [20]
  inhibition at 1 µM: 98%
Left cardiac atrium [21]
  Activity: 78%

## CC1=CSC(OCC(F)(F)F)(c2ccc(Br)cc2)c2noc(=O)n21 (racemic)
Cav1.2b [2]
  inhibition at 100 µM: 73%
[3]
  IC50: 25900 nM
Left cardiac atrium [4]
  EC50: 22 nM
Left cardiac atrium [22]
  Ratio EC50: 36
Cavia porcellus [5]
  Activity: 28%
Left cardiac atrium [10]
  Activity: 76%
Right cardiac atrium [6]
  Activity: 4%

## O=c1onc2n1-c1ccccc1S[C@@]2(OCC(F)(F)F)c1ccc(Br)cc1
Cav1.2b [2]
  inhibition at 100 µM: 47%
Left cardiac atrium [14]
  Activity: 52%
Cavia porcellus [23]
  Activity: 28%
Left cardiac atrium [4]
  EC50: 11 nM
Right cardiac atrium [24]
  Activity: 25%

## O=c1onc2n1-c1ccccc1SC2(OCC(F)(F)F)c1ccc(Br)cc1 (racemic)
[25]
  Selectivity ratio: 1965
Left cardiac atrium [1]
  Activity: 75%
Cav1.2b [2]
  inhibition at 100 µM: 54%
[3]
  IC50: 11800 nM
Left cardiac atrium [4]
  EC50: 6 nM
Right cardiac atrium [7]
  Activity: 7%
Cavia porcellus [5]
  Activity: 21%

## CCOC1(c2ccc(Br)cc2)SC=C(C)n2c1noc2=O (racemic)
Left cardiac atrium [1]
  Activity: 78%
Cav1.2b [2]
  inhibition at 100 µM: 3%
Left cardiac atrium [4]
  EC50: 40 nM
Right cardiac atrium [7]
  Activity: 5%
Left cardiac atrium [22]
  Ratio EC50: 20
Cavia porcellus [5]
  Activity: 19%

## CCOC1(c2ccc(Br)cc2)Sc2ccccc2-n2c1noc2=O (racemic)
Left cardiac atrium [1]
  Activity: 81%
Cav1.2b [2]
  inhibition at 100 µM: 87%
[17]
  IC50: 13 nM
[3]
  IC50: 8320 nM
Left cardiac atrium [4]
  EC50: 13 nM
Right cardiac atrium [7]
  Activity: 7%
Cavia porcellus [5]
  Activity: 4%
[26]
  Ratio IC50: 640
